# Target: T1, Human CaV2.2 channels (Homo sapiens, UniProt Q00975)
# T1 construct: expressed in transfected cells; host or cells: HEK293
# Assay: Fluorescent (FLIPR) assay for CaV2.2 channels using potassium depolarization to induce channel opening
# Type: cell-based
# Settings: 3 μM compound; 30 mM KCl assay buffer (inactivated channel state); HEK293 cells stably expressing human CaV2.2; read-out: Activity Category: %-Inhib (CaV2.2) @3 μM @30 mM KCl
# From the text: In the process, the Ca^2+ influx is quantified in the FLIPR assay with the aid of a Ca^2+-sensitive dye (type Fluo-4, Molecular Probes Europe BV, Leiden, the Netherlands) in a fluorescent imaging plate reader (FLIPR 3, Molecular Devices, Sunnyvale, USA), as described hereinafter.
# Human CaV2.2 channels were stably expressed in HEK293 cells together with alpha2-delta and beta subunits of voltage gated calcium channels. In addition, an inwardly rectifying potassium channel (Kir2.3) was stably expressed in these cells to augment control of the cell membrane potential by the concentration of extracellular potassium ions. Raise of the extracellular potassium concentration leads to depolarization of the membrane potential and thus regulates the voltage dependent state of CaV2.2 channels. For preparation, cells were seeded in black poly-D-lysine coated 96-well plates (Becton Dickinson, Biocoat 4640) in 100 μL medium [500 mL DMEM/F-12 plus Glutamax (Invitrogen 31331-093) plus 5.5 mL MEM NEAA 100× (Invitrogen 11140-035) plus 50 mL FBS decomplemented (Invitrogen 10270-106) plus 200 μg/mL Geneticin (Invitrogen 10131-027) plus 50 μg/mL Hygromycin B (Invitrogen 10687-010) plus 2 μg/mL Blasticidin (anti-bl5b Invivo-Gen) plus 0.2 μg/mL Puromycin (A 11138-03)] at a cell density of 30.000 cells per well. Plates were incubated at 37° C. (5% CO2) for 20 to 23 h. On the day of experiment medium was discarded and cells were loaded with Fluo 4 by addition of 100 μL of basic assay buffer (10 mM HEPES, 1 mM KCl, 149 mM NaCl, 0.8 mM CaCl2, 1.7 mM MgCl2, 10 mM Glucose, 0.1% BSA. pH 7.4) containing 2 μM Fluo 4 (Molecular Probes; F-14201), 0.01% pluronic acid (Molecular Probes; P-6866) and 2.5 mM probenecid (Molecular Probes; P36400). Cells were incubated in the dark at 25° C. for 60 min. Then dye containing buffer was discarded and 100 μL basic (1 mM KCl) or alternative (30 mM KCl) assay buffer was added. The alternative assay buffer contained altered concentrations of KCl (30 mM) and NaCl (120 mM) and was used in order to promote the inactivated channel state. After that 25 μL of basic or alternative assay buffer with or without test compound were added and cells were incubated again in the dark at 25° C. for 15 min. Fluorescence intensity was measured on a FLIPR 3 instrument (Molecular Devices Corp., Sunnyvale, Calif.) with excitation at 480 nm and emission at 535 nm. After continuously reading fluorescence for 30 sec, 50 μL of basic assay buffer containing 210 mM KCl (NaCl omitted) were added for depolarization. Peak fluorescent signal intensity was determined and the amplitude of the peak signal, normalized to base line, was used to measure channel inhibition by test compounds.
# T1 sequence (Q00975 whole entry): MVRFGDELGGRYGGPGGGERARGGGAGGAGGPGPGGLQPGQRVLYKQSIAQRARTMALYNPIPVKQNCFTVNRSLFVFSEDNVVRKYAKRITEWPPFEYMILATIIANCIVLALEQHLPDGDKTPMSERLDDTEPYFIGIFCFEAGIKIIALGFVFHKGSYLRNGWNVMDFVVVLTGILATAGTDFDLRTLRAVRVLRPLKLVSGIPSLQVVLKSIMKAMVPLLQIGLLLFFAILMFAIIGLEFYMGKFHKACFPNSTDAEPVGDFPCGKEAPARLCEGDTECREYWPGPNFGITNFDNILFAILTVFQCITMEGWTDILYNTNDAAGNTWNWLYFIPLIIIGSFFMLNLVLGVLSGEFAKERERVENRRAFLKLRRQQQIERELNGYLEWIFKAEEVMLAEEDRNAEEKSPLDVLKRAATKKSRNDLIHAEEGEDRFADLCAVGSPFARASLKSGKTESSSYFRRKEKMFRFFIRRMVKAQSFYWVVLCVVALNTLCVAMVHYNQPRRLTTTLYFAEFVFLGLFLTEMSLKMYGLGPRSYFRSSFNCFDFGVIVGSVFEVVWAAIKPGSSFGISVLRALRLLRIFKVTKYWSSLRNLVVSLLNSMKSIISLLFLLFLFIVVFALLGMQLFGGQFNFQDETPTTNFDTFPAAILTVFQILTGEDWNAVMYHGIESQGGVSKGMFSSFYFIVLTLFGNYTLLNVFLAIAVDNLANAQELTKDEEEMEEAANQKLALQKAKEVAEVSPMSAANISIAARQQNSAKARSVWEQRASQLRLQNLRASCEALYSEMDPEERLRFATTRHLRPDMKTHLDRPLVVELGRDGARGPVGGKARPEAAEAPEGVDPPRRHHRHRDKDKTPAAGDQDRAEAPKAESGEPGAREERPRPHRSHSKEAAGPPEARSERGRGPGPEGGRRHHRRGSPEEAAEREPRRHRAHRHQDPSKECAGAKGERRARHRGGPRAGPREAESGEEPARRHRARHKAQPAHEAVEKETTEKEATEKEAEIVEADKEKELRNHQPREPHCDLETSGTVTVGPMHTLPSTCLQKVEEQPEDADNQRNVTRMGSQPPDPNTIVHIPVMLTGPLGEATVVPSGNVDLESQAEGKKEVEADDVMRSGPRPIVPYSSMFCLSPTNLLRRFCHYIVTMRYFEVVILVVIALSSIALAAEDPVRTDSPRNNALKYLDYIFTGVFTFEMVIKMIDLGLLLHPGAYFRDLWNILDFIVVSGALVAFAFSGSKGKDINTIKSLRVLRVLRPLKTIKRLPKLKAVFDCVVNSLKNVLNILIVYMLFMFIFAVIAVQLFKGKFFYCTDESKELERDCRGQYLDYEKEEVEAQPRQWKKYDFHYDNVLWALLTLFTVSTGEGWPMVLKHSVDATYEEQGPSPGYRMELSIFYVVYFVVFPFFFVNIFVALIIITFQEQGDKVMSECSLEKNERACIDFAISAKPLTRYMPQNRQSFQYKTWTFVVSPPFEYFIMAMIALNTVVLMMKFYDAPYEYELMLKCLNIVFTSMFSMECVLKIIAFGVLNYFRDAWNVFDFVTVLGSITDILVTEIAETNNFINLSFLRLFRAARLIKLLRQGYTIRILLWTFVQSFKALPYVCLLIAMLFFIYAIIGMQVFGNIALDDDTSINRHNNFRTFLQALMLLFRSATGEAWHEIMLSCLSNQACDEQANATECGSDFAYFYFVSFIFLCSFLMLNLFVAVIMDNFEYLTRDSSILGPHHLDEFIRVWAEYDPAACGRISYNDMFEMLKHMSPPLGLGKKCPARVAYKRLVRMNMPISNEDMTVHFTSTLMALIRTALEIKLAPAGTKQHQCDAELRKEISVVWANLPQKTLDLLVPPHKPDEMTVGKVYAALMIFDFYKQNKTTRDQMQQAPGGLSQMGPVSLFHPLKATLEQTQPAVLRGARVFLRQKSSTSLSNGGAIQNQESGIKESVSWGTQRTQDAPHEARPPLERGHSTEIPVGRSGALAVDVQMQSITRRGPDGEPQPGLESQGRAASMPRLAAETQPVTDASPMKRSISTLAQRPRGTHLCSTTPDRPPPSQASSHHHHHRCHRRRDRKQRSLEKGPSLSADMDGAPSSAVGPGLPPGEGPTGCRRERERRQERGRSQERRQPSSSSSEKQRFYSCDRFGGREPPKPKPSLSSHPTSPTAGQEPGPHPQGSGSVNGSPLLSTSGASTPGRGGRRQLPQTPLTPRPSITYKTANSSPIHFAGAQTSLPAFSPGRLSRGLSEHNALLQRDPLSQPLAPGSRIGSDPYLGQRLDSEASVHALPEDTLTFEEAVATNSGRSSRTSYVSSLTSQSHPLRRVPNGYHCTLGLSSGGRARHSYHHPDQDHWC
# T1 sequence (P54284 whole entry, further chain): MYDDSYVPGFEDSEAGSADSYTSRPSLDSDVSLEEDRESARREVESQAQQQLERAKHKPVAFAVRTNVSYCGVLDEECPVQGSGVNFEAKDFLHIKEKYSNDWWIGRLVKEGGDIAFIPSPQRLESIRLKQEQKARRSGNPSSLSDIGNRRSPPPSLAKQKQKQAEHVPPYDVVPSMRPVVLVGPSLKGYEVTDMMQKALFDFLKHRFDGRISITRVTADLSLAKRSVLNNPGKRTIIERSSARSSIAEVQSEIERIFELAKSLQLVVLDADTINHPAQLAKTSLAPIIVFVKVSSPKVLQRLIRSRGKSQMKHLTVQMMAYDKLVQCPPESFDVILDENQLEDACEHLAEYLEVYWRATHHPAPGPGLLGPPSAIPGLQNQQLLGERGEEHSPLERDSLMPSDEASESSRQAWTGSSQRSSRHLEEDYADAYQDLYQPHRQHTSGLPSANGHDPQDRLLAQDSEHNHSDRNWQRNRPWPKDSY
# T1 sequence (P54289 25-1103, further chain): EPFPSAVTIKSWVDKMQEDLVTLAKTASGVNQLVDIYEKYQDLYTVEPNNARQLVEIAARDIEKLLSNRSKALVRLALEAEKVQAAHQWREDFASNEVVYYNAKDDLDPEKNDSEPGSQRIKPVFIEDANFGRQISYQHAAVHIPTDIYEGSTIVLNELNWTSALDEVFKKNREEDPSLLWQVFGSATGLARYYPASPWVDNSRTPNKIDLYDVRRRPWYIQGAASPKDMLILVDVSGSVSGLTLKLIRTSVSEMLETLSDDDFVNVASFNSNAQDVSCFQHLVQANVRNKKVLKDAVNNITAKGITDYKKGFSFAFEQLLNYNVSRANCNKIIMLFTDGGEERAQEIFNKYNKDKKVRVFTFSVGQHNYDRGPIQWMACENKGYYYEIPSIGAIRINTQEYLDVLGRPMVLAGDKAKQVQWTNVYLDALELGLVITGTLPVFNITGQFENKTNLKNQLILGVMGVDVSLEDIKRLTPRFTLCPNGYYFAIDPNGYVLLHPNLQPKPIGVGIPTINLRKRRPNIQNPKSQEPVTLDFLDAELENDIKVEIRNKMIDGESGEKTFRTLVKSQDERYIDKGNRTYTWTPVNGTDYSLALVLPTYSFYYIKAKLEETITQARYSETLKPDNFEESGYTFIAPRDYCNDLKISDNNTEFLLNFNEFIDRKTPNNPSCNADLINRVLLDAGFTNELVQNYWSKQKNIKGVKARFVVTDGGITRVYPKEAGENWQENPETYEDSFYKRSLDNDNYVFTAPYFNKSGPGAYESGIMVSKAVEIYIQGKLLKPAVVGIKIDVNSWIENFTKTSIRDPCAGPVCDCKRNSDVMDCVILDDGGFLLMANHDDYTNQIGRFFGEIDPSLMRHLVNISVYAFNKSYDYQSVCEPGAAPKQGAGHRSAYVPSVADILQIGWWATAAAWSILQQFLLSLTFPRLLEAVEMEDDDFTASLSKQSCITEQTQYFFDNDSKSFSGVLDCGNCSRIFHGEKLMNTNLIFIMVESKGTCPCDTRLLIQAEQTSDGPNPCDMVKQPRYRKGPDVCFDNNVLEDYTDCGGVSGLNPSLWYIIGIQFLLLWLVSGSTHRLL
row,SMILES,inhibition at 3 µM
1,"CN(CC1CCOC1)C(=O)c1c(-c2ccc(Cl)cc2)cc(C(F)(F)F)n1C1CC1 (stereo not drawn) [Example 023, 3-(4-Chlorophenyl)-1-cyclopropyl-N-methyl-N-(tetrahydro-furan-3-yl-methyl)-5-(trifluoromethyl)-1H-pyrrole-2-carboxylic acid amide]",75 to 95%
2,"CC(C)Cn1c(C(F)(F)F)cc(-c2ccc(F)cc2)c1C(=O)N(C)CC(C)(C)CO [Example 056, 3-(4-Fluorophenyl)-N-(3-hydroxy-2,2-dimethyl-propyl)-N-methyl-1-(2-methyl-propyl)-5-(trifluoromethyl)-1H-pyrrole-2-carboxylic acid amide]",75 to 95%
3,"CCn1c(C(=O)N2CCOC(C)(C)C2)c(-c2ccc(Cl)cc2)c(C)c1C(F)(F)F [Example 103, [3-(4-Chlorophenyl)-1-ethyl-4-methyl-5-(trifluoromethyl)-1H-pyrrol-2-yl]-(2,2-dimethyl-morpholin-4-yl)-methanone]",75 to 95%
4,"Cc1c(-c2ccc(Cl)cc2)c(C(=O)N2CCOC(C)(C)C2)n(CC(C)C)c1C(F)(F)F [Example 064, [3-(4-Chlorophenyl)-4-methyl-1-(2-methyl-propyl)-5-(trifluoromethyl)-1H-pyrrol-2-yl]-(2,2-dimethyl-morpholin-4-yl)-methanone]",75 to 95%
5,"Cc1cc(CN(C)C(=O)c2c(-c3ccc(Cl)cn3)c(C)c(C(F)(F)F)n2C(C)C)no1 [Example 113, 3-(5-Chloro-pyridin-2-yl)-1-isopropyl-N,4-dimethyl-N-[(5-methyl-isoxazol-3-yl)-methyl]-5-(trifluoromethyl)-1H-pyrrole-2-carboxylic acid amide]",75 to 95%
6,"Cc1noc(C2CCN(C(=O)c3c(-c4ccc(Cl)cc4F)c(C)c(C(F)(F)F)n3C3CC3)CC2)n1 [Example 028, [3-(4-Chloro-2-fluoro-phenyl)-1-cyclopropyl-4-methyl-5-(trifluoromethyl)-1H-pyrrol-2-yl]-[4-(3-methyl-[1,2,4]oxadiazol-5-yl)-piperidin-1-yl]-methanone]",75 to 95%
7,"Cc1c(-c2ccc(Cl)cc2)c(C(=O)N(C)C2CCS(=O)(=O)CC2)n(C2CC2)c1C(F)(F)F [Example 008, 3-(4-Chlorophenyl)-1-cyclopropyl-N-(1,1-dioxo-thian-4-yl)-N,4-dimethyl-5-(trifluoromethyl)-1H-pyrrole-2-carboxylic acid amide]",75 to 95%
8,"Cc1c(-c2ccc(Cl)cn2)c(C(=O)N(C)CCS(C)(=O)=O)n(C(C)C)c1C(F)(F)F [Example 118, 3-(5-Chloro-pyridin-2-yl)-1-isopropyl-N,4-dimethyl-N-(2-methylsulfonyl-ethyl)-5-(trifluoromethyl)-1H-pyrrole-2-carboxylic acid amide]",40 to 75%
9,"CC1(C)CN(C(=O)c2c(-c3ccc(Cl)cc3)cc(C(F)(F)F)n2C2CC2)CCO1 [Example 034, [3-(4-Chlorophenyl)-1-cyclopropyl-5-(trifluoromethyl)-1H-pyrrol-2-yl]-(2,2-dimethyl-morpholin-4-yl)-methanone]",75 to 95%
10,"Cc1c(-c2ccc(Cl)cn2)c(C(=O)N(C)C2CCNCC2(C)C)n(C(C)C)c1C(F)(F)F (stereo not drawn) [Example 134, 3-(5-Chloro-pyridin-2-yl)-N-(3,3-dimethyl-piperidin-4-yl)-1-isopropyl-N,4-dimethyl-5-(trifluoromethyl)-1H-pyrrole-2-carboxylic acid amide]",40 to 75%
11,"Cc1cc(CN(C)C(=O)c2c(-c3ccc(Cl)cc3)c(C)c(C(F)(F)F)n2C(C)C)no1 [Example 107, 3-(4-Chlorophenyl)-1-isopropyl-N,4-dimethyl-N-[(5-methyl-isoxazol-3-yl)-methyl]-5-(trifluoromethyl)-1H-pyrrole-2-carboxylic acid amide]",> 95%
12,"Cc1c(-c2ncc(Cl)cn2)c(C(=O)N(C)Cc2ccnn2C)n(C(C)C)c1C(F)(F)F [Example 122, 3-(5-Chloro-pyrimidin-2-yl)-1-isopropyl-N,4-dimethyl-N-[(2-methyl-2H-pyrazol-3-yl)-methyl]-5-(trifluoromethyl)-1H-pyrrole-2-carboxylic acid amide]",40 to 75%
13,"Cc1c(-c2ccc(Cl)cc2)c(C(=O)N(C)CC(C)(C)CO)n(C2CC2)c1C(F)(F)F [Example 040, 3-(4-Chlorophenyl)-1-cyclopropyl-N-(3-hydroxy-2,2-dimethyl-propyl)-N,4-dimethyl-5-(trifluoromethyl)-1H-pyrrole-2-carboxylic acid amide]",75 to 95%
14,"Cc1c(-c2ccc(Cl)cc2)c(C(=O)N(C)CC(C)(C)C(N)=O)n(C(C)C)c1C(F)(F)F [Example 105, N-(2-Carbamoyl-2-methyl-propyl)-3-(4-chlorophenyl)-1-isopropyl-N,4-dimethyl-5-(trifluoromethyl)-1H-pyrrole-2-carboxylic acid amide]",75 to 95%
15,"Cc1c(-c2ccc(Cl)cc2)c(C(=O)N2CCOCC2)n(CCN2CC(F)(F)C2)c1C(F)(F)F [Example 098, [3-(4-Chlorophenyl)-1-[2-(3,3-difluoro-azetidin-1-yl)-ethyl]-4-methyl-5-(trifluoromethyl)-1H-pyrrol-2-yl]-morpholin-4-yl-methanone]",> 95%
16,"Cc1c(-c2ccc(Cl)cc2)c(C(=O)N2CCOCC2)n(CCS(C)(=O)=O)c1C(F)(F)F [Example 099, [3-(4-Chlorophenyl)-4-methyl-1-(2-methylsulfonyl-ethyl)-5-(trifluoromethyl)-1H-pyrrol-2-yl]-morpholin-4-yl-methanone]",40 to 75%
17,"Cc1c(-c2ccc(Cl)cn2)c(C(=O)N(C)CC(C)(C)C#N)n(C(C)C)c1C(F)(F)F [Example 117, 3-(5-Chloro-pyridin-2-yl)-N-(2-cyano-2-methyl-propyl)-1-isopropyl-N,4-dimethyl-5-(trifluoromethyl)-1H-pyrrole-2-carboxylic acid amide]",75 to 95%
18,"Cc1c(-c2ccc(Cl)cc2)c(C(=O)N(C)C2CCNCC2(C)C)n(C(C)C)c1C(F)(F)F (stereo not drawn) [Example 135, 3-(4-Chlorophenyl)-N-(3,3-dimethyl-piperidin-4-yl)-1-isopropyl-N,4-dimethyl-5-(trifluoromethyl)-1H-pyrrole-2-carboxylic acid amide]",40 to 75%
19,"Cc1c(-c2ccc(Cl)cc2)c(C(=O)N2CCOCC2)n(C)c1C(F)(F)F [Example 004, [3-(4-Chlorophenyl)-1,4-dimethyl-5-(trifluoromethyl)-1H-pyrrol-2-yl]-morpholin-4-yl-methanone]",75 to 95%
20,"Cc1c(-c2ccc(Cl)cc2)c(C(=O)N2CCOCC2)n(CC#CC2CC2)c1C(F)(F)F [Example 086, [3-(4-Chlorophenyl)-1-(3-cyclopropyl-prop-2-ynyl)-4-methyl-5-(trifluoromethyl)-1H-pyrrol-2-yl]-morpholin-4-yl-methanone]",> 95%
21,"Cc1cnc(CN(C)C(=O)c2c(-c3ccc(F)cc3)cc(C(F)(F)F)n2CC(C)C)cn1 [Example 049, 3-(4-Fluorophenyl)-N-methyl-1-(2-methyl-propyl)-N-[(5-methyl-pyrazin-2-yl)-methyl]-5-(trifluoromethyl)-1H-pyrrole-2-carboxylic acid amide]",> 95%
22,"CN(C(=O)c1c(-c2ccc(Cl)cc2)cc(C(F)(F)F)n1C1CC1)C1CC1 [Example 013, 3-(4-Chlorophenyl)-N,1-dicyclopropyl-N-methyl-5-(trifluoromethyl)-1H-pyrrole-2-carboxylic acid amide]",75 to 95%
23,"CN(CC(C)(C)C)C(=O)c1c(-c2ccc(Cl)cc2)cc(C(F)(F)F)n1CC1(N)CC1 [Example 088, 1-[(1-Amino-cyclopropyl)-methyl]-3-(4-chlorophenyl)-N-(2,2-dimethyl-propyl)-N-methyl-5-(trifluoromethyl)-1H-pyrrole-2-carboxylic acid amide]",75 to 95%
24,"CC(C)Cn1c(C(F)(F)F)cc(-c2ccc(F)cc2)c1C(=O)NC1CC1 [Example 066, N-Cyclopropyl-3-(4-fluorophenyl)-1-(2-methyl-propyl)-5-(trifluoromethyl)-1H-pyrrole-2-carboxylic acid amide]",75 to 95%
